15 compounds from US9078871B2, “Estrogen receptor modulators and uses thereof” (SERAGON PHARMACEUTICALS, INC., priority 2010, dated 2015) can be followed below.

Each structure is given as a SMILES string. pIC50: −log10 of the molar value. A value given as a limit tells only on which side of the number the result lay.

Test [1] deals with MCF-7 cells. The experiment in a line: Breast Cancer Cell Viability Assay (MCF7 Viability Assay). The note with it: 5 days' compound exposure, CellTiter-Glo; for pIC50: Homo sapiens, MCF7, 120 h. The test is classed as cell-based. As to the method: MCF-7 cells were adjusted to a concentration of 20,000 cells per mL in RPMI containing 10% FBS and 20 mM HEPES. 16 microliters of the cell suspension (320 cells) was added to each well of a 384 well plate, and the cells were incubated overnight to allow the cells to adhere. The following day an eleven point, serial semilog dilution of each compound was added to the cells in 16 μL at a final concentration ranging from 0.3-0.000003 μM. After 5 days' compound exposure, 16 μL of CellTiter-GLo (Promega, Madison Wis.) was added to the cells the relative luminescence units (RLUs) of each well was determined. CellTiter-Glo added to 32 μL of medium without cells was used to obtain a background value. The Percent viability of each sample was determined as follows: (RLU sample-RLU background/RLU untreated cells-RLU background)×100=% viability.

Test [2] has as its target T1, ER-α (Homo sapiens, UniProt P03372).
T1 construct: endogenous in cells; host or cells: MCF-7
T1 sequence (P03372 1-595): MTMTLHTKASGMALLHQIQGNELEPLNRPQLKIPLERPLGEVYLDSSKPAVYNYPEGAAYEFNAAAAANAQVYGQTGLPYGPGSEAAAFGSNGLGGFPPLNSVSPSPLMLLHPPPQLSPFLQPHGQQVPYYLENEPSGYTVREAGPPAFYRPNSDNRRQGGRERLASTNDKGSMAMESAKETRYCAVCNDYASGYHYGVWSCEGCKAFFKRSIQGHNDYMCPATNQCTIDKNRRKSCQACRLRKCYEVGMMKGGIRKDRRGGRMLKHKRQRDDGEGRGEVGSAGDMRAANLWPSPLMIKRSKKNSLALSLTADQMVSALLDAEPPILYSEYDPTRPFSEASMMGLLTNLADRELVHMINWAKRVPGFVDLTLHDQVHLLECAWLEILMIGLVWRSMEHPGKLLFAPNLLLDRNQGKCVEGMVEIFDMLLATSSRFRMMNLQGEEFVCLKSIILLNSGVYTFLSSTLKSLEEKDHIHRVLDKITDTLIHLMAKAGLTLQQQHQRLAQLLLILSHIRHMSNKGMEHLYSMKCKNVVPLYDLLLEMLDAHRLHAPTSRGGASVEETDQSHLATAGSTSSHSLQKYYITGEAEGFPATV
Nature of the test: ER-α in Cell Western Assay (SP1). Format: cell-based. The note with it: MCF-7 cells, SP1 rabbit monoclonal Ab, 4 or 24 hr post compound addition, read-out: ER In-Cell Western Assay (SP1); for Emax: MCF7, Max Response; for DC50: IC50. As to the method: MCF-7 cells were adjusted to a concentration of 200,000 cells per mL in RPMI containing 10% charcoal-stripped FBS and 20 mM HEPES. 16 microliters of the cell suspension (3200 cells) was added to each well of a poly-D-lysine 384 well plate, and the cells were incubated overnight to allow the cells to adhere. The following day an eleven point, serial semilog dilution of each compound was added to the cells in 16 μL at a final concentration ranging from 0.3-0.000003 μM. At 4 or 24 hr post compound addition, the cells were fixed (10% formalin in PBS) for 20 minutes. Cells were permeabalized in PBS 0.1% Triton and blocked with LICOR blocking buffer (50 μl/well, 90′). The wells were then incubated overnight at 4° C. with SP1 rabbit monoclonal Ab (Thermo Scientific) diluted 1:1000 in LICOR blocking buffer/0.1% Tween-20. Wells which were treated with blocking buffer with Tween but no antibody were used as a background control. Wells were washed with 0.1% Tween-20/PBS and then incubated in goat anti-rabbit IRDye™ 800CW (LICOR Inc.; 1:1000) and DRAQ5 DNA dye (1:2000 for 2 mM stock) diluted in LICOR blocking buffer containing 0.1% Tween-20 and 0.01% SDS for 60 minutes. Cells were washed (50 μl/well, 5′ each) in 0.1% Tween-20/PBS. Plates were scanned on a LICOR Odyssey infrared imaging system. Integrated intensities in the 800 nm channel and 700 nm channel were measured to determine levels of ER and DNA respectively. Percent ER levels were determined as follows: (Integrated intensity 800 nm sample/integrated intensity 700 nm sample)/(Integrated intensity 800 nm untreated cells/integrated intensity 700 nm untreated cells)×100=% ER levels.

The term pIC50 denotes the negative decadic logarithm of the IC50, by convention in mol/L. Read a low pIC50 as a high IC50. For `CC1=C(c2cc(F)c(O)c(F)c2)C(c2ccc(OC[C@H](C)N3CC[C@@H](C)C3)cc2)Oc2ccc(O)cc21` (stereo partly drawn) [Example 47, 3-(3,5-Difluoro-4-hydroxyphenyl)-4-methyl-2-(4-((S)-2-((R)-3-methylpyrrolidin-1-yl)propoxy)phenyl)-2H-chromen-6-ol], in test [1], the “MCF7 Viability Assay Max Response” value is “++ (++ = a single % value ≧50%)” and the negative logarithm of the IC50 (pIC50) is no less than 9.00. In test [2], the Emax was no less than 85% and the DC50 is no more than 1 nM.
Regarding `CC1=C(c2ccc(F)cc2)[C@H](c2ccc(OC[C@H](C)N3CC[C@@H](C)C3)cc2)Oc2ccc(O)cc21` (single isomer, unassigned) [Example 30a], in test [1], the “MCF7 Viability Assay Max Response” value is listed as “++ (++ = a single % value ≧50%)” and the negative logarithm of the IC50 (pIC50) is no less than 9.00. Besides, in test [2], the Emax was in the range of 60 to 85% and the DC50 is no more than 1 nM.
As for `CC1=C(c2cccc(O)c2)C(c2ccc(OC[C@H](C)N3CC[C@@H](C)C3)cc2)Oc2ccc(O)c(F)c21` (stereo partly drawn) [Example 61, 5-Fluoro-3-(3-hydroxyphenyl)-4-methyl-2-(4-((S)-2-((R)-3-methylpyrrolidin-1-yl)propoxy)phenyl)-2H-chromen-6-ol], in test [1], the “MCF7 Viability Assay Max Response” value is on record as “++ (++ = a single % value ≧50%)” and the pIC50 was no less than 9.00. Also, in test [2], the Emax was no less than 85% and the DC50 was no more than 1 nM.
On to `CC1=C(c2ccc(F)c(F)c2)C(c2ccc(OC[C@H](C)N3CC[C@@H](C)C3)cc2)Oc2ccc(O)cc21` (stereo partly drawn) [Example 46, 3-(3,4-Difluorophenyl)-4-methyl-2-(4-((S)-2-((R)-3-methylpyrrolidin-1-yl)propoxy)phenyl)-2H-chromen-6-ol], for which, in test [1], the “MCF7 Viability Assay Max Response” value is reported as “++ (++ = a single % value ≧50%)” and the pIC50 is less than 9.00. For the same compound, in test [2], the Emax lay within 60 to 85% and the DC50 is greater than 1 nM.
`CC1=C(c2ccc(Cl)cc2)C(c2ccc(OC[C@H](C)N3CC[C@@H](C)C3)cc2)Oc2ccc(O)cc21` (stereo partly drawn) [Example 44, 3-(4-Chlorophenyl)-4-methyl-2-(4-((S)-2-((R)-3-methylpyrrolidin-1-yl)propoxy)phenyl)-2H-chromen-6-ol]: in test [1], the “MCF7 Viability Assay Max Response” value is listed as “++ (++ = a single % value ≧50%)” and the pIC50 was less than 9.00. Also, in test [2], the Emax lay in the range of 60 to 85% and the DC50 was greater than 1 nM.
For `CC1=C(c2ccc(F)cc2Cl)C(c2ccc(OC[C@H](C)N3CC[C@@H](C)C3)cc2)Oc2ccc(O)cc21` (stereo partly drawn) [Example 50, 3-(2-Chloro-4-fluorophenyl)-4-methyl-2-(4-((S)-2-((R)-3-methylpyrrolidin-1-yl)propoxy)phenyl)-2H-chromen-6-ol], in test [1], the “MCF7 Viability Assay Max Response” value is “++ (++ = a single % value ≧50%)” and the pIC50 is no less than 9.00. In test [2], the Emax lay in the range of 60 to 85% and the DC50 is no more than 1 nM.
With `CC1=C(c2cc(O)cc(F)c2)C(c2ccc(OC[C@H](C)N3CC[C@@H](C)C3)cc2)Oc2ccc(O)cc21` (stereo partly drawn) [Example 43, 3-(3-Fluoro-5-hydroxyphenyl)-4-methyl-2-(4-((S)-2-((R)-3-methylpyrrolidin-1-yl)propoxy)phenyl)-2H-chromen-6-ol], in test [1], the “MCF7 Viability Assay Max Response” value is “++ (++ = a single % value ≧50%)” and the pIC50 was no less than 9.00. Moreover, in test [2], the Emax was no less than 85% and the DC50 is no more than 1 nM.
Turning to `CC1=C(c2ccc(O)cc2F)C(c2ccc(OC[C@H](C)N3CC[C@@H](C)C3)cc2)Oc2ccc(O)cc21` (stereo partly drawn) [Example 45, 3-(2-Fluoro-4-hydroxyphenyl)-4-methyl-2-(4-((S)-2-((R)-3-methylpyrrolidin-1-yl)propoxy)phenyl)-2H-chromen-6-ol], in test [1], the “MCF7 Viability Assay Max Response” value was “++ (++ = a single % value ≧50%)” and the negative-log IC50 (pIC50) is no less than 9.00. Moreover, in test [2], the Emax was no less than 85% and the DC50 was no more than 1 nM.
`CC1=C(c2ccc(F)c(O)c2F)C(c2ccc(OC[C@H](C)N3CC[C@@H](C)C3)cc2)Oc2ccc(O)cc21` (stereo partly drawn) [Example 48, 3-(2,4-Difluoro-3-hydroxyphenyl)-4-methyl-2-(4-((S)-2-((R)-3-methylpyrrolidin-1-yl)propoxy)phenyl)-2H-chromen-6-ol]: in test [1], the “MCF7 Viability Assay Max Response” value is on record as “++ (++ = a single % value ≧50%)” and the pIC50 is less than 9.00. For the same compound, in test [2], the Emax is no less than 85% and the DC50 is no more than 1 nM.
`CC1=C(c2cccc(O)c2)C(c2ccc(OC[C@H](C)N3CC[C@@H](F)C3)cc2)Oc2ccc(O)cc21` (stereo partly drawn) [Example 64, 2-(4-((S)-2-((R)-3-Fluoropyrrolidin-1-yl)propoxy)phenyl)-3-(3-hydroxyphenyl)-4-methyl-2H-chromen-6-ol]: in test [1], the “MCF7 Viability Assay Max Response” value is on record as “++ (++ = a single % value ≧50%)” and the negative logarithm of the IC50 (pIC50) was no less than 9.00. In test [2], the Emax was no less than 85% and the DC50 was no more than 1 nM.
Regarding `CC1=C(c2ccc(F)cc2)C(c2ccc(OC[C@H](C)N3CCOCC3)cc2)Oc2ccc(O)cc21` (stereo partly drawn) [Example 70, 3-(4-Fluorophenyl)-4-methyl-2-(4-((S)-2-morpholinopropoxy)phenyl)-2H-chromen-6-ol], in test [1], the “MCF7 Viability Assay Max Response” value is “++ (++ = a single % value ≧50%)” and the pIC50 was less than 9.00. Also, in test [2], the Emax was in the range of 60 to 85% and the DC50 is no more than 1 nM.
Regarding `CC1=C(c2cccc(O)c2F)C(c2ccc(OC[C@H](C)N3CC[C@@H](C)C3)cc2)Oc2ccc(O)cc21` (stereo partly drawn) [Example 60, 3-(2-Fluoro-3-hydroxyphenyl)-4-methyl-2-(4-((S)-2-((R)-3-methylpyrrolidin-1-yl)propoxy)phenyl)-2H-chromen-6-ol], in test [1], the “MCF7 Viability Assay Max Response” value is “++ (++ = a single % value ≧50%)” and the negative logarithm of the IC50 (pIC50) is no less than 9.00. In test [2], the Emax is no less than 85% and the DC50 is no more than 1 nM.
Regarding `CC1=C(c2ccc(O)cc2C)C(c2ccc(OC[C@H](C)N3CC[C@@H](C)C3)cc2)Oc2ccc(O)cc21` (stereo partly drawn) [Example 41, 3-(4-Hydroxy-2-methylphenyl)-4-methyl-2-(4-((S)-2-((R)-3-methylpyrrolidin-1-yl)propoxy)phenyl)-2H-chromen-6-ol], in test [1], the “MCF7 Viability Assay Max Response” value is on record as “++ (++ = a single % value ≧50%)” and the pIC50 was no less than 9.00. In test [2], the Emax is 60 to 85% and the DC50 was no more than 1 nM.
Consider `CC1=C(c2ccc(C(F)(F)F)c(O)c2)C(c2ccc(OC[C@H](C)N3CC[C@@H](C)C3)cc2)Oc2ccc(O)cc21` (stereo partly drawn) [Example 68, 3-(3-Hydroxy-4-(trifluoromethyl)phenyl)-4-methyl-2-(4-((S)-2-((R)-3-methylpyrrolidin-1-yl)propoxy)phenyl)-2H-chromen-6-ol], for which, in test [1], the “MCF7 Viability Assay Max Response” value was “++ (++ = a single % value ≧50%)” and the negative-log IC50 (pIC50) was less than 9.00. Also, in test [2], the Emax was in the range of 60 to 85% and the DC50 was greater than 1 nM.
Consider `CC1=C(c2ccc(F)cc2)C(c2ccc(OC[C@H](C)N3CC4CC4C3)cc2)Oc2ccc(O)cc21` (stereo partly drawn) [Example 71, 2-(4-((2S)-2-(3-Azabicyclo[3.1.0]hexan-3-yl)propoxy)phenyl)-3-(4-fluorophenyl)-4-methyl-2H-chromen-6-ol], for which, in test [1], the “MCF7 Viability Assay Max Response” value is listed as “++ (++ = a single % value ≧50%)” and the pIC50 is less than 9.00. In addition, in test [2], the Emax lay within 60 to 85% and the DC50 was no more than 1 nM.
